This is an account of results in US11648254B2 (Kumquat Biosciences Inc., priority 2021, dated 2023).

What is called IC50 is the point on the concentration scale where inhibition reaches its midpoint.

Read-outs that look alike come from different tables or passages of the source.

The subject of experiment [1] is MIA PaCa-2 cells (K-Ras G12C). Nature of the experiment: Ras-SOS cellular growth inhibition assay (CellTiter-Glo, 3D). The class given is cell-based. The settings on record: Homo sapiens. Put shortly: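 Growth read by CellTiter-Glo luminescence about 5 days after dosing with 3-fold dilutions (9 points), added one day post-seeding. Cells: MIA PaCa-2, 3D culture on ultra-low-attachment surface, medium DMEM/Ham's F12 plus 10% FCS and 2.5% horse serum; IC50 by four-parameter fit.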
A general note: In ATP-based viability assays light output follows the ATP content of the culture.

The target of a further experiment is SOS1 (Homo sapiens (Human), UniProt Q07889). Nature of the experiment: Ras-SOS interaction assay (HTRF). Format: biochemical.
In experiment [2] the test system is NCI-H1975 cells (EGFR T790M L858R). Nature of the experiment: EGFR-SOS cellular inhibition assay (CellTiter-Glo, 3D). Format: cell-based. To be noted: Homo sapiens.
Setting [3] is: MIA PaCa-2, 120 h, MIA PaCa-2, 3D proliferation, about 5 days, read-out: Bio-Cell-Prolif-3D (MiaPaca2 IC50).
Where [4] appears, read: MIA PaCa-2, MIA PaCa-2, read-out: IC50 in inhibiting MIA PaCa-2 cell growth.
The mark [5] stands for this setting: K-RasG13D utilized, read-out: IC50 inhibition of SOS.
Where [6] appears, read: K-RasG13D, read-out: IC50 value against SOS1.
[7] abbreviates: 120 h, NCI-H1975, 3D proliferation, about 5 days, read-out: Bio-Cell-Prolif-3D (H1975 IC50).
Where [8] appears, read: NCI-H1975, EGFR T790M L858R, read-out: IC50 in inhibiting growth of NCI-H1975 cell line.

SOS1, sequence (Q07889 564-1049): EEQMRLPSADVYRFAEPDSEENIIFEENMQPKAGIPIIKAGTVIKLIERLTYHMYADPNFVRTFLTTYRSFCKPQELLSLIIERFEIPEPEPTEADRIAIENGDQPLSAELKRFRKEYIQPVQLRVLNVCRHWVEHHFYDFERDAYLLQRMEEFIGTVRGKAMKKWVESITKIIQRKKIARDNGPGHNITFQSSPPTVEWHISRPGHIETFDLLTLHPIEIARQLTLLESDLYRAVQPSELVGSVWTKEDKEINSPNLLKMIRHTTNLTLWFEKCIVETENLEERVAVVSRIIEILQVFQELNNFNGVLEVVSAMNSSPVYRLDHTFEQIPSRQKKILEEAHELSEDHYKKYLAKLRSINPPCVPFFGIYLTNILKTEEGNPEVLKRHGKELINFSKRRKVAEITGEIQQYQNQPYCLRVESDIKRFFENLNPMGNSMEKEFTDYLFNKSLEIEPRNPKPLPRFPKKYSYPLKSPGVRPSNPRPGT

Regarding `Cc1nc(N[C@H](C)c2cccc(C(F)F)c2F)c2cc(C3CCS(=O)(=O)CC3)c(OCCN(C)C)nc2n1` [Compound 145, (R)-4-(4-((1-(3-(difluoromethyl)-2-fluorophenyl)-ethyl)amino)-7-(2-(dimethylamino)ethoxy)-2-methylpyrido[2,3-d]pyrimidin-6-yl)tetrahydro-2H-thiopyran 1,1-dioxide], the IC50 is not above 1000 nM in experiment [1] (setting [3]); less than 500 nM in experiment [1] (setting [4]); less than 100 nM on SOS1 (setting [5]); less than 50 nM at SOS1 (setting [6]); not above 1000 nM in experiment [2] (setting [7]); less than 500 nM in experiment [2] (setting [8]).
Consider `Cc1nc(N[C@H](C)c2cccc(C(F)(F)F)c2F)c2cc(C3(C#N)CC3)c(N3CCN(C(C)C)CC3)nc2n1` [Compound 346, (R)-1-(4-((1-(2-fluoro-3-(trifluoromethyl)phenyl)ethyl)amino)-7-(4-isopropylpiperazin-1-yl)-2-methylpyrido[2,3-d]pyrimidin-6-yl)cyclopropane-1-carbonitrile], for which the IC50 in experiment [1] (setting [3]) is not above 1000 nM; in experiment [1] (setting [4]) it was less than 500 nM; at SOS1 (setting [5]), less than 100 nM; at SOS1 (setting [6]), less than 50 nM; in experiment [2] (setting [7]) it was not above 1000 nM; in experiment [2] (setting [8]), less than 500 nM.
For `C#Cc1nc(N[C@H](C)c2cccc(C(F)F)c2F)c2cc(C3(C#N)CC3)c(OC)nc2n1` [Compound 276, (R)-1-(4-((1-(3-(difluoromethyl)-2-fluorophenyl)ethyl)amino)-2-ethynyl-7-methoxypyrido[2,3-d]pyrimidin-6-yl)cyclopropane-1-carbonitrile], the IC50 in experiment [1] (setting [3]) is 1000 to 10000 nM; on SOS1 (setting [5]), less than 100 nM; in experiment [2] (setting [7]), 1000 to 10000 nM.
With `COc1nc2nc(C)nc(N[C@H](C)c3cccc(C(F)F)c3F)c2cc1[C@H]1C[C@@H](NC(=O)C2COC2)C1` [Compound 125, N-((1S,3s)-3-(4-(((R)-1-(3-(difluoromethyl)-2-fluorophenyl)ethyl)amino)-7-methoxy-2-methylpyrido[2,3-d]pyrimidin-6-yl)cyclobutyl)oxetane-3-carboxamide], the IC50 in experiment [1] (setting [3]) was not above 1000 nM; in experiment [1] (setting [4]), less than 500 nM; on SOS1 (setting [6]) it was less than 50 nM; in experiment [2] (setting [7]), not above 1000 nM; in experiment [2] (setting [8]), less than 500 nM.
With `CC(C)N1CCC(c2cc3c(N[C@H](C)c4cccc(C(F)F)c4F)ncnc3nc2OC2COC2)CC1` [Compound 317, (R)-N-(1-(3-(difluoromethyl)-2-fluorophenyl)ethyl)-6-(1-isopropylpiperidin-4-yl)-7-(oxetan-3-yloxy)pyrido[2,3-d] pyrimidin-4-amine], the IC50 in experiment [1] (setting [3]) is 1000 to 10000 nM; on SOS1 (setting [5]), less than 100 nM; on SOS1 (setting [6]), less than 50 nM; in experiment [2] (setting [7]) it was not above 1000 nM; in experiment [2] (setting [8]), less than 500 nM.
In the case of `Cc1nc(N[C@H](C)c2cccc(C(F)(F)C(C)O)c2F)c2cc(C3(C#N)CC3)c(Cl)nc2n1` (stereo in doubt) [Compound 333, 1-(7-chloro-4-(((R)-1-(3-((S)-1,1-difluoro-2-hydroxypropyl)-2-fluorophenyl)ethyl)amino)-2-methylpyrido[2,3-d]pyrimidin-6-yl)cyclopropane-1-carbonitrile], the IC50 is not above 1000 nM in experiment [1] (setting [3]); less than 500 nM in experiment [1] (setting [4]); less than 100 nM on SOS1 (setting [5]); less than 50 nM at SOS1 (setting [6]); not above 1000 nM in experiment [2] (setting [7]); less than 500 nM in experiment [2] (setting [8]).
`Cc1nc(N[C@H](C)c2cccc(C(F)(F)F)c2F)c2cc(C3CCN(C(C)C)CC3)c(Cl)nc2n1` [Compound 391, (R)-7-chloro-N-(1-(2-fluoro-3-(trifluoromethyl)phenyl)ethyl)-6-(1-isopropylpiperidin-4-yl)-2-methylpyrido[2,3-d] pyrimidin-4-amine]: the IC50 was not above 1000 nM in experiment [1] (setting [3]); less than 500 nM in experiment [1] (setting [4]); less than 100 nM at SOS1 (setting [5]); less than 50 nM at SOS1 (setting [6]); not above 1000 nM in experiment [2] (setting [7]); less than 500 nM in experiment [2] (setting [8]).
With `COc1nc2ncnc(N[C@H](C)c3cccc(C(F)(F)C4CCN(C(C)C)CC4)c3)c2cc1N1CCN(C(C)C)CC1` [Compound 421, (R)-N-(1-(3-(difluoro(1-isopropylpiperidin-4-yl)methyl)phenyl)ethyl)-6-(4-isopropylpiperazin-1-yl)-7-methoxypyrido[2,3-d] pyrimidin-4-amine], the IC50 in experiment [1] (setting [3]) was not above 1000 nM; in experiment [1] (setting [4]), less than 500 nM; at SOS1 (setting [5]) it was less than 100 nM; on SOS1 (setting [6]) it was less than 50 nM; in experiment [2] (setting [7]), not above 1000 nM; in experiment [2] (setting [8]), less than 500 nM.
With `COc1nc2ncnc(N[C@H](C)c3cccc(C(F)F)c3F)c2cc1C1(C#N)CC1` [Compound 184, (R)-1-(4-((1-(3-(difluoromethyl)-2-fluorophenyl)ethyl)amino)-7-methoxypyrido[2,3-d]pyrimidin-6-yl)cyclopropane-1-carbonitrile], the IC50 in experiment [1] (setting [3]) is not above 1000 nM; on SOS1 (setting [5]), less than 100 nM; in experiment [2] (setting [7]), not above 1000 nM; in experiment [2] (setting [8]), less than 500 nM.
With `COc1nc2ncnc(N[C@H](C)c3cccc(C(F)F)c3F)c2cc1C1CCN(C)CC1` [Compound 412, (R)-N-(1-(3-(difluoromethyl)-2-fluorophenyl)ethyl)-7-methoxy-6-(1-methylpiperidin-4-yl)pyrido[2,3-d] pyrimidin-4-amine], the IC50 in experiment [1] (setting [3]) was not above 1000 nM; in experiment [1] (setting [4]) it was less than 500 nM; on SOS1 (setting [5]) it was less than 100 nM; at SOS1 (setting [6]), less than 50 nM; in experiment [2] (setting [7]) it was not above 1000 nM; in experiment [2] (setting [8]), less than 500 nM.
For `CC(C)N1CCC(c2cc3c(N[C@H](C)c4cccc(C(F)(F)C5CCN(C(C)C)CC5)c4)ncnc3nc2Cl)CC1` [Compound 268, (R)-7-chloro-N-(1-(3-(difluoro(1-isopropylpiperidin-4-yl)methyl)phenyl)ethyl)-6-(1-isopropylpiperidin-4-yl)pyrido[2,3-d] pyrimidin-4-amine], the IC50 in experiment [1] (setting [3]) is not above 1000 nM; in experiment [1] (setting [4]) it was less than 500 nM; at SOS1 (setting [5]), less than 100 nM; at SOS1 (setting [6]), less than 50 nM; in experiment [2] (setting [7]), not above 1000 nM; in experiment [2] (setting [8]), less than 500 nM.
Consider `CC(C)N1CCC(C(F)(F)c2cccc([C@@H](C)Nc3ncnc4nc(Cl)c(N5CCN(C(C)C)CC5)cc34)c2)CC1` [Compound 291, (R)-7-chloro-N-(1-(3-(difluoro(1-isopropylpiperidin-4-yl)methyl)phenyl)ethyl)-6-(4-isopropylpiperazin-1-yl)pyrido[2,3-d] pyrimidin-4-amine], for which the IC50 was not above 1000 nM in experiment [1] (setting [3]); less than 500 nM in experiment [1] (setting [4]); less than 100 nM at SOS1 (setting [5]); less than 50 nM on SOS1 (setting [6]); not above 1000 nM in experiment [2] (setting [7]); less than 500 nM in experiment [2] (setting [8]).
Consider `COc1nc2nc(C)nc(N[C@H](C)c3cccc(C(F)(F)C(C)(C)O)c3)c2cc1N1CCN(C)CC1` [Compound 324, (R)-1,1-difluoro-1-(3-(1-((7-methoxy-2-methyl-6-(4-methylpiperazin-1-yl)pyrido[2,3-d]pyrimidin-4-yl)amino)ethyl)phenyl)-2-methylpropan-2-ol], for which the IC50 in experiment [1] (setting [3]) was not above 1000 nM; in experiment [1] (setting [4]), less than 500 nM; at SOS1 (setting [5]), less than 100 nM; on SOS1 (setting [6]), less than 50 nM; in experiment [2] (setting [7]) it was not above 1000 nM; in experiment [2] (setting [8]), less than 500 nM.
